Data taken from US10105401B2, “Composition comprising bioactive amino acids and/or peptides and marine oil in a stable oil-in-water emulsion, and the use of said composition as a functional or therapeutic composition” (SMARTFISH AS, priority 2009, dated 2018).

Assays:
[1] = when supplemented as part of Smartfish; skeletal muscle, heart, brain
Procedure: The tissues were finally analyzed for the content of carnosine, both labeled and non-labeled.
This amount equals 200 mg/kg per day. After one week, the following organs were dissected out; gastrocnemius, heart and brain and immediately frozen in liquid nitrogen, and stored at −80° C.
Carnosine (Sigma-Aldrich) and 15N13C2-labeled carnosine (Sigma-Aldrich) concentrations in tissue were determined by HPLC-MS/MS operated in MRM mode.
Mouse tissues were homogenized in Methanolic HCL using a pellet grinder with cordless motor (Kontes). The homogenate was incubated for 30 min at 50° C. This procedure homogenized the tissue, precipitated proteins and methylated the carboxcylic acid group.
After centrifugation, the supernatant were injected directly into the LC-MS/MS system. Calibrators were prepared by methylation of non labeled carnosine in methanolic HCl. The HPLC column used was a Zorbax XDB 150×4.6 mm ID with 5 μm particles. A gradient elution starting with 10% MeOH in water and 4 g/l ammonium acetate 40% MeOH for 3 minutes changing linearly to 100% methanol over 3.5 minutes was used to separate carnosine from other constituents.

[2] = cited from earlier work

## NCCC(=O)O [β-alanine]
[1]
  bioavailability and tissue uptake of β-alanine: bioavailable and taken up by all the three target tissues
[2]; human volunteers, nine week washout after six weeks of β-alanine
  reduction of muscle carnosine levels per week in washout: 2.5-3.5 % reduction/week
[2]; humans, six week period, 4.8 g β-alanine per day
  average increase in muscle carnosine: 27%
